Data on five compounds can be found in ChEMBL document CHEMBL1255270, “Relationship between antibiotic use and incidence of MexXY-OprM overproducers among clinical isolates of Pseudomonas aeruginosa” (2008).

In brackets after ≈: the same amount, converted by molar mass.

Holding throughout (type): functional
Test [1] relates to Pseudomonas aeruginosa. The test can be described thus: Antimicrobial activity against MexXY-OprM-overproducing Pseudomonas aeruginosa PAO1 harboring MexY agrW mutant and MexZ mutant gene selected after 1 ug/ml of oflaxacin exposure.
Test [2] relates to Pseudomonas aeruginosa. The test can be described thus: Antimicrobial activity against MexXY-OprM-overproducing Pseudomonas aeruginosa PAO1 harboring MexY agrZ mutant and MexZ mutant gene selected after 4ug/ml of gentamycin exposure.
In test [3] the test system is Pseudomonas aeruginosa. The test can be described thus: Antimicrobial activity against MexXY-OprM-overproducing Pseudomonas aeruginosa PAO1 harboring MexY and MexZ mutant gene selected after 4 ug/ml of cefepime exposure.
Test [4] has as its system Pseudomonas aeruginosa. The experiment in a line: Antimicrobial activity against mexXY-OprM-overproducing Pseudomonas aeruginosa PAO1.
The subject of test [5] is Pseudomonas aeruginosa. The test can be described thus: Antimicrobial activity against MexXY-OprM-overproducing Pseudomonas aeruginosa PAO1 harboring MexY agrZ mutant and MexZ mutant gene selected after 1 ug/ml of Norfloxacin exposure.
The test system of test [6] is Pseudomonas aeruginosa. The test can be described thus: Antimicrobial activity against MexXY-OprM-overproducing Pseudomonas aeruginosa PAO1 harboring MexY agrW mutant and MexZ mutant gene selected after 0.25 ug/ml of ciprofloxacin exposure.
The subject of test [7] is Pseudomonas aeruginosa. The test can be described thus: Antimicrobial activity against MexXY-OprM-overproducing Pseudomonas aeruginosa PAO1 harboring MexY and MexZ mutant gene selected after 0.25 ug/ml of ciprofloxacin exposure.
Test [8] relates to Pseudomonas aeruginosa. The experiment in a line: Antimicrobial activity against MexXY-OprM-overproducing Pseudomonas aeruginosa PAO1 harboring MexY and MexZ mutant gene selected after 8 ug/ml of amikacin exposure.
In test [9] the test system is Pseudomonas aeruginosa. The experiment in a line: Antimicrobial activity against MexXY-OprM-overproducing Pseudomonas aeruginosa PAO1 harboring MexY agrW mutant and MexZ mutant gene selected after 8 ug/ml of amikacin exposure.
The subject of test [10] is Pseudomonas aeruginosa. The test can be described thus: Antimicrobial activity against MexXY-OprM-overproducing Pseudomonas aeruginosa PAO1 harboring MexY agrW mutant and MexZ mutant gene selected after 4 ug/ml of cefepime exposure.
For test [11], the system named is Pseudomonas aeruginosa. The experiment in a line: Antimicrobial activity against MexXY-OprM-overproducing Pseudomonas aeruginosa PAO1 harboring MexY agrZ mutant and MexZ mutant gene selected after 1 ug/ml of tobramycin exposure.
For test [12], the system named is Pseudomonas aeruginosa. The test can be described thus: Antimicrobial activity against mexXY-OprM-overproducing Pseudomonas aeruginosa isolate PA/XY assessed as zone of inhibition by disk diffusion method. A general note: Agar diffusion results depend on both activity and mobility in agar.
Test [13] deals with Pseudomonas aeruginosa. The test can be described thus: Antimicrobial activity against mexXY-OprM-overproducing Pseudomonas aeruginosa clinical isolate.

What is called MIC is the lowest concentration that inhibits growth of the organism. Take `CO/N=C(\C(=O)N[C@@H]1C(=O)N2C(C(=O)[O-])=C(C[N+]3(C)CCCC3)CS[C@H]12)c1csc(N)n1`: the MIC in the test on Pseudomonas aeruginosa [1] is 4 µg/mL; in the test with Pseudomonas aeruginosa [2], 4 µg/mL; with Pseudomonas aeruginosa [3] it was 4 µg/mL; with Pseudomonas aeruginosa [4], 2 µg/mL (≈ 4.16 µM); with Pseudomonas aeruginosa [5] it was 4 µg/mL; with Pseudomonas aeruginosa [6], 4 µg/mL. Also, the MIC in the test on Pseudomonas aeruginosa [7], with Pseudomonas aeruginosa [8], with Pseudomonas aeruginosa [9], in the test on Pseudomonas aeruginosa [10] and with Pseudomonas aeruginosa [11] was 4 µg/mL in each case.

For `NCC[C@H](O)C(=O)N[C@@H]1C[C@H](N)[C@@H](O[C@H]2O[C@H](CN)[C@@H](O)[C@H](O)[C@H]2O)[C@H](O)[C@H]1O[C@H]1O[C@H](CO)[C@@H](O)[C@H](N)[C@H]1O` [AMIKACIN], the MIC is 8 µg/mL with Pseudomonas aeruginosa [1]; 8 µg/mL in the test with Pseudomonas aeruginosa [2]; 8 µg/mL in the test with Pseudomonas aeruginosa [3]; 4 µg/mL (≈ 6.83 µM) in the test on Pseudomonas aeruginosa [4]; 8 µg/mL in the test on Pseudomonas aeruginosa [5]; 8 µg/mL in the test on Pseudomonas aeruginosa [6]. The minimum inhibitory concentration (MIC) with Pseudomonas aeruginosa [13] was found to be 4 µg/mL (≈ 6.83 µM); in the test on Pseudomonas aeruginosa [7] it was 8 µg/mL; in the test on Pseudomonas aeruginosa [8], 8 µg/mL; in the test on Pseudomonas aeruginosa [9], 8 µg/mL; in the test on Pseudomonas aeruginosa [10], 8 µg/mL; in the test with Pseudomonas aeruginosa [11], 8 µg/mL. For the same compound, in the test on Pseudomonas aeruginosa [12], the “inhibition zone (IZ)” value is recorded as <20 mm.

Take `O=C(O)c1cn(C2CC2)c2cc(N3CCNCC3)c(F)cc2c1=O` [CIPROFLOXACIN]: the MIC in the test with Pseudomonas aeruginosa [4] worked out at 0.12 µg/mL (≈ 0.362 µM).

`NC[C@H]1O[C@H](O[C@H]2[C@H](O)[C@@H](O[C@H]3O[C@H](CO)[C@@H](O)[C@H](N)[C@H]3O)[C@H](N)C[C@@H]2N)[C@H](N)C[C@@H]1O` [TOBRAMYCIN]: the MIC was 2 µg/mL with Pseudomonas aeruginosa [1]; 2 µg/mL in the test on Pseudomonas aeruginosa [2]; 2 µg/mL in the test on Pseudomonas aeruginosa [3]; 1 µg/mL (≈ 2.14 µM) in the test with Pseudomonas aeruginosa [4]; 2 µg/mL with Pseudomonas aeruginosa [5]; 2 µg/mL in the test on Pseudomonas aeruginosa [6]. In addition, the MIC in the test on Pseudomonas aeruginosa [13] is 1 µg/mL (≈ 2.14 µM); in the test on Pseudomonas aeruginosa [7] it was 2 µg/mL; in the test on Pseudomonas aeruginosa [8], 2 µg/mL; with Pseudomonas aeruginosa [9], 2 µg/mL; in the test on Pseudomonas aeruginosa [10] it was 2 µg/mL; in the test with Pseudomonas aeruginosa [11], 2 µg/mL. For the same compound, the “inhibition zone (IZ)” value with Pseudomonas aeruginosa [12] is reported as <20 mm.

Regarding GENTAMICIN, the MIC in the test with Pseudomonas aeruginosa [1] turned out to be 8 µg/mL; in the test on Pseudomonas aeruginosa [2] it was 8 µg/mL; in the test with Pseudomonas aeruginosa [3] it was 8 µg/mL; against Pseudomonas aeruginosa [4] it was 4 µg/mL; in the test with Pseudomonas aeruginosa [5], 8 µg/mL; in the test on Pseudomonas aeruginosa [6], 8 µg/mL. Also, the MIC with Pseudomonas aeruginosa [13] is 2 µg/mL; with Pseudomonas aeruginosa [7] it was 8 µg/mL; in the test on Pseudomonas aeruginosa [8], 8 µg/mL; in the test with Pseudomonas aeruginosa [9] it was 8 µg/mL; in the test with Pseudomonas aeruginosa [10], 8 µg/mL; in the test on Pseudomonas aeruginosa [11], 8 µg/mL. Moreover, in the test on Pseudomonas aeruginosa [12], the inhibition zone (IZ) was < 20 mm.
